From US20230227435A1, “SMALL MOLECULE MODULATORS OF IL-17” (LEO PHARMA A/S, priority 2020, published 2023)

The compounds below were run against T1, human IL-17AA (Homo sapiens, UniProt Q16552) (assay: IL-8 release assay in human epithelial keratinocytes adult (HEKa)). Details: HEKa cells; 3 ng/mL HEK-human IL-17AA + 10 ng/mL human TNFalpha; 68-72 hours; IL-8 by HTRF; read-out: Rel EC50 IL-8 release assay.
T1 construct: host or cells: HEK (human embryonic kidney) cells
T1 sequence (Q16552 24-155) 1: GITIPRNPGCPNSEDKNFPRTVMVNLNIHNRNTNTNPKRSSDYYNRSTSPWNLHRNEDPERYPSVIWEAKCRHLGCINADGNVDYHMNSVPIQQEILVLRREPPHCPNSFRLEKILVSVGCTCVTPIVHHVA
T1 sequence (Q16552 24-155) 2: T1 sequence (Q16552 24-155) 1
Assay type: cell-based
Protocol: Example 8: IL-8 Release Assay in Human Epithelial Keratinocytes Adult (HEKa)
Keratinocytes were seeded at 3500 cells/well in 384-well ViewPlates (Perkin Elmer) in Epilife medium (Thermo Fisher) containing human keratinocyte growth supplement (HKGS) without hydrocortisone and incubated in a humid incubator at 37° C., 5% CO2, overnight. The following day growth medium was removed and 25 μl fresh Epilife medium was added. 75 nL test compound in100% DMSO was added into each well reserved for test compounds, by the use of acoustic pipetting. The remaining wells received an equal volume of DMSO only, as vehicle control, or terfenadine in DMSO, as a positive control for any cytotoxic compounds. Subsequently, another 25 μL Epilife medium was added to each well. Finally, wells containing test compounds and wells prepared to yield maximum stimulation received 25 μL of 9 ng/mL recombinant, human embryonic kidney cell (HEK)-derived human IL-17AA+30 ng/mL human TNF-alpha, in Epilife medium. Wells prepared to define 100% inhibition of IL-17 effects received 25 μL of 30 ng/mL human TNF-alpha alone, in Epilife medium. Final concentrations were 3 ng/mL HEK-human IL-17AA+10 ng/mL human TNFalpha (maximum stimulation) and 10 ng/mL human TNFalpha alone (100% inhibition, Emax), respectively. Cells were incubated for 68-72 hours in the incubator. IL-8 released from the cells was measured by the use of a commercial homogenous time-resolved fluorescence (HTRF) assay (CisBio). 2 μL cell culture supernatant was transferred to a 384-well Proxiplate. 5 μL HTRF reagent was added and the plates were incubated sealed in the dark for 3-22 hours at room temperature. Time-resolved fluorescence was read at 665 vs 620 nm, with excitation at 320 nm, and IL-8 levels were calculated as percent of controls. Reduction of the amount of secreted IL-8 indicates decreased IL-17 signaling. Concentration response curves were fitted by the use of a four-parameter logistic equation. Relative IC50 and Emax were reported from curves showing acceptable fit (r^2>0.9). Cytotoxicity was measured in the cell-containing Viewplates following addition of 7 μL PrestoBlue (Thermo Fisher) and incubation for 2.5-3 hours at room temperature, by measuring fluorescence at 615 nm (excitation at 535 nm). Fluorescence was directly proportional to the amount of metabolic activity. Reduction of fluorescence signal indicated cytotoxicity.
Compounds of the present invention were tested in the IL-8 release assay in human epithelial keratinocytes.

Q: `Cc1n[nH]c(C)c1-c1ccc(NC(=O)C(c2ncc(-c3ccnn3C(C)C)[nH]2)C(C2CC2)C2CC2)cc1` (stereo not shown) [Example 68, 3,3-dicyclopropyl-N-[4-(3,5-dimethyl-1H-pyrazol-4-yl)phenyl]-2-[5-(2-isopropylpyrazol-3-yl)-1H-imidazol-2-yl]propanamide] was tested. Which EC50 did it give?
A: 170 nM

Q: With `COc1ccncc1-c1nnc(C(C(=O)Nc2ccc(-c3c(C)n[nH]c3C)cc2)C(C2CC2)C2CC2)[nH]1` (stereo not shown) [Example 56, 3,3-dicyclopropyl-N-[4-(3,5-dimethyl-1H-pyrazol-4-yl)phenyl]-2-[5-(4-methoxy-3-pyridyl)-4H-1,2,4-triazol-3-yl]propanamide] as the compound, how does the EC50 read?
A: 320 nM

Q: For `Cc1n[nH]c(C)c1-c1ccc(NC(=O)C(c2nnc(C3CCCC3)[nH]2)C(C2CC2)C2CC2)cc1` (stereo not shown) [Example 10, 2-(5-cyclopentyl-4H-1,2,4-triazol-3-yl)-3,3-dicyclopropyl-N-[4-(3,5-dimethyl-1H-pyrazol-4-yl)phenyl]propanamide], which EC50 is on record?
A: 1900 nM

Q: With `Cc1n[nH]c(C)c1-c1ccc(NC(=O)C(c2nnc(Cc3ccccc3)[nH]2)C(C2CC2)C2CC2)cc1` (stereo not shown) [Example 17, 2-(5-benzyl-4H-1,2,4-triazol-3-yl)-3,3-dicyclopropyl-N-[4-(3,5-dimethyl-1H-pyrazol-4-yl)phenyl]propanamide] as the compound, how does the EC50 read?
A: 240 nM

Q: For `COc1cc(-c2cnc(C(C(=O)Nc3ccc(-c4c(C)n[nH]c4C)cc3)C(C3CC3)C3CC3)[nH]2)ccn1` (stereo not shown) [Example 69, 3,3-dicyclopropyl-N-[4-(3,5-dimethyl-1H-pyrazol-4-yl)phenyl]-2-[5-(2-methoxy-4-pyridyl)-1H-imidazol-2-yl]propanamide], which EC50 is on record?
A: 490 nM

Q: For `CCn1nccc1-c1nnc(C(C(=O)Nc2ccc(-c3c(C)n[nH]c3C)cc2)C(C2CC2)C2CC2)[nH]1` (stereo not shown) [Example 23, 3,3-dicyclopropyl-N-[4-(3,5-dimethyl-1H-pyrazol-4-yl)phenyl]-2-[5-(2-ethylpyrazol-3-yl)-4H-1,2,4-triazol-3-yl]propanamide], which EC50 is on record?
A: 59 nM

Q: With `Cc1n[nH]c(C)c1-c1ccc(NC(=O)C(c2nnc[nH]2)C(C2CC2)C2CC2)cc1` (stereo not shown) [Example 4, 3,3-dicyclopropyl-N-[4-(3,5-dimethyl-1H-pyrazol-4-yl)phenyl]-2-(4H-1,2,4-triazol-3-yl)propanamide] as the compound, how does the EC50 read?
A: 2900 nM

Q: Which EC50 does the source give for `Cc1n[nH]c(C)c1-c1ccc(NC(=O)C(c2nnc(-c3ccccc3F)[nH]2)C(C2CC2)C2CC2)cc1` (stereo not shown) [Example 5, 3,3-dicyclopropyl-N-[4-(3,5-dimethyl-1H-pyrazol-4-yl)phenyl]-2-[5-(2-fluorophenyl)-4H-1,2,4-triazol-3-yl]propanamide] here?
A: 390 nM

Q: With `Cc1n[nH]c(C)c1-c1ccc(NC(=O)C(c2nc(-c3ccccc3)c(C)[nH]2)C(C2CC2)C2CC2)cc1` (stereo not shown) [Example 7, 3,3-dicyclopropyl-N-[4-(3,5-dimethyl-1H-pyrazol-4-yl)phenyl]-2-(5-methyl-4-phenyl-1H-imidazol-2-yl)propanamide] as the compound, how does the EC50 read?
A: 800 nM

Q: `Cc1n[nH]c(C)c1-c1ccc(NC(=O)C(c2nnc(-c3ccnc(C(F)F)c3)[nH]2)C(C2CC2)C2CC2)cc1` (stereo not shown) [Example 55, 3,3-dicyclopropyl-2-[5-[2-(difluoromethyl)-4-pyridyl]-4H-1,2,4-triazol-3-yl]-N-[4-(3,5-dimethyl-1H-pyrazol-4-yl)phenyl]propanamide] was tested. Which EC50 did it give?
A: 27 nM

Q: For `COc1ccc(-c2nnc(C(C(=O)Nc3ccc(-c4c(C)n[nH]c4C)cc3)C(C3CC3)C3CC3)[nH]2)cn1` (stereo not shown) [Example 34, 3,3-dicyclopropyl-N-[4-(3,5-dimethyl-1H-pyrazol-4-yl)phenyl]-2-[5-(6-methoxy-3-pyridyl)-4H-1,2,4-triazol-3-yl]propanamide], which EC50 is on record?
A: 430 nM

Q: With `Cc1n[nH]c(C)c1-c1ccc(NC(=O)C(c2nnc(-c3cnoc3C)[nH]2)C(C2CC2)C2CC2)cc1` (stereo not shown) [Example 41, 3,3-dicyclopropyl-N-[4-(3,5-dimethyl-1H-pyrazol-4-yl)phenyl]-2-[5-(5-methylisoxazol-4-yl)-4H-1,2,4-triazol-3-yl]propanamide] as the compound, how does the EC50 read?
A: > 3250 nM

Q: `Cc1n[nH]c(C)c1-c1ccc(NC(=O)C(c2nnc(-c3ccnc(C(F)F)c3)[nH]2)C2CCC(F)(F)CC2)cc1` (stereo not shown) [Example 63, 2-(4,4-difluorocyclohexyl)-2-[5-[2-(difluoromethyl)-4-pyridyl]-4H-1,2,4-triazol-3-yl]-N-[4-(3,5-dimethyl-1H-pyrazol-4-yl)phenyl]acetamide] was tested. Which EC50 did it give?
A: 200 nM

Q: With `COc1cncc(-c2nnc(C(C(=O)Nc3ccc(-c4c(C)n[nH]c4C)cc3)C(C3CC3)C3CC3)[nH]2)c1` (stereo not shown) [Example 48, 3,3-dicyclopropyl-N-[4-(3,5-dimethyl-1H-pyrazol-4-yl)phenyl]-2-[5-(5-methoxy-3-pyridyl)-4H-1,2,4-triazol-3-yl]propanamide] as the compound, how does the EC50 read?
A: 130 nM

Q: How did the EC50 turn out when `Cc1nocc1-c1nnc(C(C(=O)Nc2ccc(-c3c(C)n[nH]c3C)cc2)C(C2CC2)C2CC2)[nH]1` (stereo not shown) [Example 42, 3,3-dicyclopropyl-N-[4-(3,5-dimethyl-1H-pyrazol-4-yl)phenyl]-2-[5-(3-methylisoxazol-4-yl)-4H-1,2,4-triazol-3-yl]propanamide] was run?
A: 470 nM

Q: `Cc1n[nH]c(C)c1-c1ccc(NC(=O)C(c2nc(-c3ccccc3)c(Cl)[nH]2)C(C2CC2)C2CC2)cc1` (stereo not shown) [Example 3, 2-(5-chloro-4-phenyl-1H-imidazol-2-yl)-3,3-dicyclopropyl-N-[4-(3,5-dimethyl-1H-pyrazol-4-yl)phenyl]propanamide] was tested. Which EC50 did it give?
A: 3100 nM

Q: For `Cc1nn(C)cc1-c1nnc(C(C(=O)Nc2ccc(-c3c(C)n[nH]c3C)cc2)C(C2CC2)C2CC2)[nH]1` (stereo not shown) [Example 25, 3,3-dicyclopropyl-N-[4-(3,5-dimethyl-1H-pyrazol-4-yl)phenyl]-2-[5-(1,3-dimethylpyrazol-4-yl)-4H-1,2,4-triazol-3-yl]propanamide], which EC50 is on record?
A: 230 nM

Q: For `COc1cc(-c2nnc(C(C(=O)Nc3ccc(-c4c(C)n[nH]c4C)cc3)C(C3CC3)C3CC3)[nH]2)ccn1` (stereo not shown) [Example 35, 3,3-dicyclopropyl-N-[4-(3,5-dimethyl-1H-pyrazol-4-yl)phenyl]-2-[5-(2-methoxy-4-pyridyl)-4H-1,2,4-triazol-3-yl]propanamide], which EC50 is on record?
A: 160 nM

Q: With `Cc1n[nH]c(C)c1-c1ccc(NC(=O)C(c2nnc(-c3ccnn3CC(F)(F)F)[nH]2)C(C2CC2)C2CC2)cc1` (stereo not shown) [Example 26, 3,3-dicyclopropyl-N-[4-(3,5-dimethyl-1H-pyrazol-4-yl)phenyl]-2-[5-[2-(2,2,2-trifluoroethyl)pyrazol-3-yl]-4H-1,2,4-triazol-3-yl]propanamide] as the compound, how does the EC50 read?
A: 24 nM

Q: Which EC50 does the source give for `Cc1n[nH]c(C)c1-c1ccc(NC(=O)C(c2nnc(-c3cccnc3)[nH]2)C(C2CC2)C2CC2)cc1` (stereo not shown) [Example 31, 3,3-dicyclopropyl-N-[4-(3,5-dimethyl-1H-pyrazol-4-yl)phenyl]-2-[5-(3-pyridyl)-4H-1,2,4-triazol-3-yl]propanamide] here?
A: 430 nM

Q: With `Cc1n[nH]c(C)c1-c1ccc(NC(=O)C(c2nnc(-c3ccnc(C(F)(F)F)c3)[nH]2)C(C2CC2)C2CC2)cc1` (stereo not shown) [Example 54, 3,3-dicyclopropyl-N-[4-(3,5-dimethyl-1H-pyrazol-4-yl)phenyl]-2-[5-[2-(trifluoromethyl)-4-pyridyl]-4H-1,2,4-triazol-3-yl]propanamide] as the compound, how does the EC50 read?
A: 76 nM

Q: How did the EC50 turn out when `COc1ccccc1-c1cnc(C(C(=O)Nc2ccc(-c3c(C)n[nH]c3C)cc2)C(C2CC2)C2CC2)[nH]1` (stereo not shown) [Example 9, 3,3-dicyclopropyl-N-[4-(3,5-dimethyl-1H-pyrazol-4-yl)phenyl]-2-[5-(2-methoxyphenyl)-1H-imidazol-2-yl]propanamide] was run?
A: 450 nM
